# US20250214991A1 (Oncopia Therapeutics, Inc. d/b/a/ SK Life Science Labs, priority 2022, published 2025)
# Legend:
# IKZF2 = IKZF2 (Homo sapiens (Human), UniProt Q96SW2+Q9UKS7); test: In vitro IKZF2 Western Blot Assay in Jurkat cells; type: cell-based; conditions: 24 hrs; for inhibition at 0.001 µM: read-out: IKZF2 degradation (%) @ μM 0.001; for inhibition at 0.01 µM: read-out: IKZF2 degradation (%) @ μM 0.01; for inhibition at 0.1 µM: read-out: IKZF2 degradation (%) @ μM 0.1; for inhibition at 1 µM: read-out: IKZF2 degradation (%) @ μM 1; for inhibition at 10 µM: read-out: IKZF2 degradation (%) @ μM 10
# Experimental: In vitro IKZF2 Western Blot Assay Jurkat cells (ATCC, Cat #HB-8065) were cultured in RPMI1640+10% FBS+1% P/S. Cells were treated at desired compound concentrations (0.001, 0.01, 0.1, 1, and 10 μM) and DMSO as vehicle control for 24 hrs. After 24 hr of treatment cells were collected by centrifugation and lysed in RIPA lysis buffer on ice for 10 min. After assessing protein concentration by BCA assay (Pierce), equal amounts of protein for each sample were loaded into 4-12% Bis-Tris gels (Invitrogen), transferred to PVDF membranes and immunoblotted with antibodies against IKZF2 and Actin (Cell Signaling). Membranes were developed on an Odyssey detection system (LI-COR Biosciences) after incubation with IRDye800-labeled goat anti-rabbit IgG and IRDye680-labeled goat anti-mouse IgG (LI-COR) secondary antibodies. Band intensities were quantified using ImageStudio software. Data was further analyzed using XLfit. Percentage of IKZF2 protein degradation: A (>50%); B (30-50%); C(<30%) (Table 2).
# CRBN/DDB1 = CRBN/DDB1 (Homo sapiens (Human), UniProt Q96SW2); test: IC50 measurements for binding to CRBN/DDB1 (HTRF); conditions: His tagged CRBN+DDB, Cy5-labeled Thalidomide probe, one hour
# How it was run: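 Serially diluted compounds compete with a Cy5-labeled thalidomide tracer (60 nM) for His-tagged CRBN-DDB1 (2 nM), detected via anti-6His Tb cryptate (0.4 nM); buffer HEPES pH 7.5 with TCEP, Brij-35, NaCl, BSA. One-hour room-temperature incubation, HTRF signal read, IC50 by four-parameter curve.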
# IKZF2, sequence (Q9UKS7 whole entry): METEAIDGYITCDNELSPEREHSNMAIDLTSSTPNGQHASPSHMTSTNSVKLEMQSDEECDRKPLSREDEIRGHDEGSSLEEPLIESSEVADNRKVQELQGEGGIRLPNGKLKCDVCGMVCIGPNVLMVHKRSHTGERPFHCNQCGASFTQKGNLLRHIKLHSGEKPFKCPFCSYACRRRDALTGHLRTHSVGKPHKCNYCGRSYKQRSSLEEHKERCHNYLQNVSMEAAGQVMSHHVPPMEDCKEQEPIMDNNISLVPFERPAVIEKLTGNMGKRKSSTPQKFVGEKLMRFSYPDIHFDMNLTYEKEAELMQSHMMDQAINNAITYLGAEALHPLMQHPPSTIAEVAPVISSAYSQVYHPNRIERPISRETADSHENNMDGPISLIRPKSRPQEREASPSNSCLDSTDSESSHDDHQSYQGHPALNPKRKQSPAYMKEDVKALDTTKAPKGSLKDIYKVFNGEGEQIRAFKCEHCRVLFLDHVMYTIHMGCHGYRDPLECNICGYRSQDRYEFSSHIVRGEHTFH
# IKZF2, sequence (Q96SW2 whole entry): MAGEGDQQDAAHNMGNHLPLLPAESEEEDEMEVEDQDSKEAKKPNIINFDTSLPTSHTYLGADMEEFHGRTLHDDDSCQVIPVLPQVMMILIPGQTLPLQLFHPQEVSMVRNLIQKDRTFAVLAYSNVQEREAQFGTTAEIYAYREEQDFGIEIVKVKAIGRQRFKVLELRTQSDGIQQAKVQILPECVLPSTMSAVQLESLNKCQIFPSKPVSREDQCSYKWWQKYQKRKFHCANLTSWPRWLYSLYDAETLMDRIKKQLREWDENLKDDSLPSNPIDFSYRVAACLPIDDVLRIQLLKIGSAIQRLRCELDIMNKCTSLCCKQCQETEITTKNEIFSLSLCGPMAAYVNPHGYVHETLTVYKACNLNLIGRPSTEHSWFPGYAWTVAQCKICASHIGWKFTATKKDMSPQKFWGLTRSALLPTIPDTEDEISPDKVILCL
# IKZF2, sequence (Q16531 2-1140 partner): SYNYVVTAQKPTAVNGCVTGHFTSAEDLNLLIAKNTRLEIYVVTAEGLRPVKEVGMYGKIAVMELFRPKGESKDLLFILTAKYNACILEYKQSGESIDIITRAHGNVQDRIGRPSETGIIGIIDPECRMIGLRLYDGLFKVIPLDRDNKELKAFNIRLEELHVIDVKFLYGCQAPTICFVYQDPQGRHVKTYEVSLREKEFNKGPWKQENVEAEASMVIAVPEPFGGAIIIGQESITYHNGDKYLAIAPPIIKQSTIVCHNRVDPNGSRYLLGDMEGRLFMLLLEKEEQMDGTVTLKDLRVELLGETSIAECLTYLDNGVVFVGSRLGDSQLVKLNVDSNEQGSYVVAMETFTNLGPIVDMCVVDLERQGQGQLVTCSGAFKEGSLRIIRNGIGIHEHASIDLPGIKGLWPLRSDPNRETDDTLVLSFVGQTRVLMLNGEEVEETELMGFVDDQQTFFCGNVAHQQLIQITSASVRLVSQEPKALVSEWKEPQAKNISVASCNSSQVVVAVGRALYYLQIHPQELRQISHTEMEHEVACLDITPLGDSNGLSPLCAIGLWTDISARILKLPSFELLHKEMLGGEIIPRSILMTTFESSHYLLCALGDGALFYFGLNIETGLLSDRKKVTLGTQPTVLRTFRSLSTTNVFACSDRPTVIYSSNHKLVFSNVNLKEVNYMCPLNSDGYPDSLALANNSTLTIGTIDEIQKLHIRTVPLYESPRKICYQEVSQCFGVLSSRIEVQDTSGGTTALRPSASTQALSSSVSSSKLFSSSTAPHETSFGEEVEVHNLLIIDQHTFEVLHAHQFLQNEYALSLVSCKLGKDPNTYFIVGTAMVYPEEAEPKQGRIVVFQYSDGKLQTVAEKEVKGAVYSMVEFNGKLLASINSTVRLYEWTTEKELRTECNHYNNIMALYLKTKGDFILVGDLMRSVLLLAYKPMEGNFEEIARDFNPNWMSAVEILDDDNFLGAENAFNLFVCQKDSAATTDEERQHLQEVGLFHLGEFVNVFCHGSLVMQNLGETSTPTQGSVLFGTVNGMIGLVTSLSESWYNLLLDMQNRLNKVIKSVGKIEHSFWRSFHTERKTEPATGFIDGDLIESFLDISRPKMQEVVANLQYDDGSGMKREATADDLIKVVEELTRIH
# CRBN/DDB1, sequence (Q96SW2 whole entry, species assumed): as the sequence (Q96SW2 whole entry) above
# CRBN/DDB1, sequence (Q16531 whole entry partner, species assumed): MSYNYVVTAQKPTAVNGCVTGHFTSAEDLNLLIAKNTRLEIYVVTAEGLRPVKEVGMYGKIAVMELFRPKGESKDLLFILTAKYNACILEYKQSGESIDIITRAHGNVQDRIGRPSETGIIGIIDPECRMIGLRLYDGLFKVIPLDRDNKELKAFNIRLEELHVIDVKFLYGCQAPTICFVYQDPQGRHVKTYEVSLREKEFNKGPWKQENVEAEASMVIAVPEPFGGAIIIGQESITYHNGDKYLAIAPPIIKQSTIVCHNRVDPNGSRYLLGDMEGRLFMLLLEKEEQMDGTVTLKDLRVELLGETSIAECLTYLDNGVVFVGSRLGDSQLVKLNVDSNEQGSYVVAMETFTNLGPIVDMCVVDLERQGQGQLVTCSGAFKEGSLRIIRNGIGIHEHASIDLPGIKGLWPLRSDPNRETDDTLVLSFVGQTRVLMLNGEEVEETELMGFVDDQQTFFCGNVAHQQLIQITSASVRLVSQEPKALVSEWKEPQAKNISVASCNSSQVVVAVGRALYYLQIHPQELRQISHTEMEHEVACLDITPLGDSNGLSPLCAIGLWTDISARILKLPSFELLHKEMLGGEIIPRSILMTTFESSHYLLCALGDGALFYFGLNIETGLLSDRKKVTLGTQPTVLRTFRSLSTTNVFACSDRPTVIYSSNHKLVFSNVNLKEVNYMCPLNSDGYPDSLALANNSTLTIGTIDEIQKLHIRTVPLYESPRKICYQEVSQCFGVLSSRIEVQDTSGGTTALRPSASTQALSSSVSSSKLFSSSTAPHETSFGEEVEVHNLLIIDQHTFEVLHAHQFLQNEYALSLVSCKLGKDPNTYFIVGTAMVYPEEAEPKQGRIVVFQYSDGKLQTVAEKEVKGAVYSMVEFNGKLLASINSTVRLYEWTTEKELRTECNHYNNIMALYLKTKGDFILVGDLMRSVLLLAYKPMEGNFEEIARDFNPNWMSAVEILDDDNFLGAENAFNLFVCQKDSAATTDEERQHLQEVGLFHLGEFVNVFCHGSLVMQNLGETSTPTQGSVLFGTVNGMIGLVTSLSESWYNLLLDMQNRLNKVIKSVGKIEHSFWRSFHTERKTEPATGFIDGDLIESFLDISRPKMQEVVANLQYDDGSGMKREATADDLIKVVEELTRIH
Structure (SMILES),inhibition at 0.001 µM (IKZF2),inhibition at 0.01 µM (IKZF2),inhibition at 0.1 µM (IKZF2),inhibition at 1 µM (IKZF2),inhibition at 10 µM (IKZF2),IC50 (CRBN/DDB1)
"O=C1CCC(N2Cc3cc(-c4cc(CNCCc5ccccc5Cl)cn5ccnc45)ccc3C2=O)C(=O)N1 (stereo not drawn) [Example 44, 3-(5-(6-(((2-chlorophenethyl)amino)methyl)imidazo[1,2-a]pyridin-8-yl)-1-oxoisoindolin-2-yl) piperidine-2,6-dione]",< 30%,< 30%,30 to 50%,< 30%,30 to 50%,100 to 500 nM
"O=C1CCC(N2Cc3cc(-c4cc(CN5CCCCC5)cn5ccnc45)ccc3C2=O)C(=O)N1 (stereo not drawn) [Example 33, 3-(1-oxo-5-(6-(piperidin-1-ylmethyl)imidazo[1,2-a]pyridin-8-yl)isoindolin-2-yl) piperidine-2,6-dione]",< 30%,> 50%,> 50%,> 50%,> 50%,100 to 500 nM
"O=C1CCC(N2Cc3cc(-c4cc(CNCCc5ccc(Cl)cc5Cl)cn5ccnc45)ccc3C2=O)C(=O)N1 (stereo not drawn) [Example 40, 3-(5-(6-(((2,4-dichlorophenethyl)amino)methyl)imidazo[1,2-a]pyridin-8-yl)-1-oxoisoindolin-2-yl) piperidine-2,6-dione]",< 30%,< 30%,< 30%,< 30%,30 to 50%,100 to 500 nM
"Cc1ccccc1CCNCc1cc(-c2ccc3c(c2)CN(C2CCC(=O)NC2=O)C3=O)c2nccn2c1 (stereo not drawn) [Example 42, 3-(5-(6-(((2-methylphenethyl)amino)methyl)imidazo[1,2-a]pyridin-8-yl)-1-oxoisoindolin-2-yl) piperidine-2,6-dione]",< 30%,< 30%,< 30%,< 30%,30 to 50%,< 100 nM
"O=C1CCC(N2Cc3cc(-c4cc(CNCCc5ccccc5Cl)cc5cncn45)ccc3C2=O)C(=O)N1 (stereo not drawn) [Example 21, 3-(5-(7-(((2-chlorophenethyl)amino)methyl)imidazo[1,5-a]pyridin-5-yl)-1-oxoisoindolin-2-yl) piperidine-2,6-dione]",30 to 50%,> 50%,> 50%,> 50%,> 50%,100 to 500 nM
